# Measured values: patent publication US20250090482A1, “COMPOSITIONS AND METHODS FOR THE TREATMENT OF DEPRESSION” (Janssen Pharmaceuticals, Inc., priority 2022, published 2025)
# Several values for one entry are separate records, joined by “and”; a condition that tells them apart may be missing. Equal entries are not always repeated.
# Assays:
# [1] = test system: TRD patients, 3MM biomarker signature positive or negative; assay: 3MM biomarker signature analysis of MADRS treatment effect across esketamine TRD trials; assay type: in vivo, human; settings: for treatment effect, improvement over placebo: end of double blind treatment
# Description: (§1) Samples of venous blood were obtained from patients and healthy control subjects from subject described in Example 1 and from the other clinical trials referenced herein. Serum or plasma was prepared from the samples of venous blood. Measurements of human CRP and IL-6-R were performed in serum using an MSD Sector 6000 with the kits #K151STD and K151ALC (MesoScale Discovery, Rockville, MD). Human TNFα was quantified in serum using a Simoa HD-1 analyzer with kit #143 (Quanterix, Lexington, MA). All measures were performed according to kit manufacturer's recommendations.
# (§2) As used in the following biomarker assay analysis, treatment (TRT) refers to treatment with intranasal esketamine plus optionally an oral antidepressant and placebo (PBO) refers to treatment with a placebo plus optionally an oral antidepressant.
# (§3) The following biomarker signatures were employed: • 3MM: Inflammatory biomarker signature with positive status defined by CRP>3 mg/L and (TNFα>[…] or sIL6R>25 ng/mL). • 2MM: Inflammatory biomarker signature with positive status defined by CRP>3 mg/L and sIL6R>25 ng/mL. • CRP: Inflammatory biomarker signature with positive status defined by CRP>3 mg/L/
# (§4) The 3MM signature was tested in clinical trials for adjunctive MDD, including treatment-resistant MDD (TRD) and MDD with suicidal ideation (SUI). […] Significant was driven by Esketamine (ESK) TRD trials.
# [2] = test system: MDD with suicidal ideation (SUI); assay: 3MM biomarker signature analysis in esketamine trials with suicidal ideation (SUI); assay type: in vivo, human
# Description: as §1, §2, §3, §4
smiles,measurement,setting,value
"CN[C@]1(c2ccccc2Cl)CCCCC1=O [esketamine, (S)-2-(2-chlorophenyl)-2-(methylamino)cyclohexanone]","treatment effect, improvement over placebo",[1]; 3MM biomarker signature negative subjects,2 MADRS points and 2.0 MADRS points
same,"treatment effect, improvement over placebo",[1]; 3MM biomarker signature positive subjects,7.8 MADRS points
same,difference between subtypes (Signature advantage),[1]; 3MM positive minus negative,5.8 point
same,prediction of treatment effect by 3MM status at baseline,[2],did not predict treatment effect
